This passage reports viability results from article PMC12040169 (PLOS Biology, 2025).

The data set can be described thus: in vitro. The note with it: human, hela cells, % viability.

In general, viability refers to a read-out of living cells in per cent, often relative to untreated cells. As for `COc1ccc([C@@]23CC[C@@H](NC(=O)Nc4cc(F)c(F)c(F)c4)C[C@@H]2N(C)CC3)c(F)c1OC` [CBK073909T], the viability at 28.5 h, 10 µM was determined as 90.6%.
`Cc1cccc(-n2ncc3c2ncn2c(COc4ccccc4C)nnc32)c1` [CBK265567]: the viability at 28.5 h, 10 µM stood at 86.2%.
As to `CC(Oc1cccc(F)c1)C(=O)N(C)Cc1cccnc1` (centres unmarked) [CBK304841], the viability at 28.5 h, 10 µM came out at 95.5%.
On to `CC(C)N1CCC(CNC(=O)c2cccc(N3CCCC3=O)c2)CC1` [CBK282641], for which the viability at 28.5 h, 10 µM is 104%.
For the molecule `Oc1ccc(C2N=C(c3ccccc3)N=C(c3ccccc3)N2)cc1` (centres unmarked) [CBK018755], the viability at 28.5 h, 10 µM was determined as 95.4%.
The result for `CC(C)n1nnnc1SCCC(=O)N1CCN(c2ccc(F)cc2)CC1` [CBK304602] reads 95.5%; that for `Cc1cnc(CNS(=O)(=O)c2ccc(F)cc2)cn1` [CBK050489], 107%.
On to `c1ccc(SCCCN2CCNCC2)cc1` [CBK266067G], for which the viability at 28.5 h, 10 µM turned out to be 100%.
The value for `CCOC(=O)CNS(=O)(=O)c1cccc(Cl)c1C` [CBK004702] was 103%; that for `O=C(C1CCC1)N1C2CCC1Cn1c(nc3ccccc3c1=O)C2` (centres unmarked) [CBK284453] was 91.5%; that for `O=C(NCCN1CCOCC1)C1CCN(Cc2ccccc2O)CC1` [CBK264324] was 101%.
The result for `COc1ccc(C2(NCc3ccc(N4CCCC4=O)cc3)CC2)cc1` [CBK282834] reads 103%.
In the case of `CC(C)(C)c1ccc(NC(=O)N(CCN)Cc2c[nH]c(-c3ccccc3)n2)cc1` [CBK046297C], the viability at 28.5 h, 10 µM was 64.9%.
Regarding `COc1ccc(CNC(=O)c2ccccc2NS(=O)(=O)c2cc(Cl)ccc2Cl)cc1` [CBK113964], the viability at 28.5 h, 10 µM worked out at 101%.
As for `Oc1c(-c2cccc(C(F)(F)F)c2)cnc2cccnc12` [CBK081290], the viability at 28.5 h, 10 µM stood at 87.1%.
The result for `O=C(NCc1ccc(C(=O)O)cc1)NC1CCCCC1` [CBK286980] reads 84.5%; that for `O=[N+]([O-])c1ccc(OCC(O)CN2CCCN(c3nc4ccc(Cl)cc4s3)CC2)cc1` (centres unmarked) [CBK074647], 85.9%; that for `CCOc1ccc(-n2c(N)c(C(=O)NCc3ccco3)sc2=S)cc1` [CBK265578], 96.3%.
As for `Cc1csc(NC(=O)c2cccn(Cc3cccc([N+](=O)[O-])c3)c2=O)n1` [CBK294414], the viability at 28.5 h, 10 µM was determined as 87.4%.
The value for `CN(CC(=O)N1CCCCC1)S(=O)(=O)c1cc(Cl)ccc1Cl` [CBK091826] was 78.9%.
Regarding `CCn1cnnc1C1CCN(C(=O)c2ccc(C)c(Cl)c2)CC1` [CBK303997], the viability at 28.5 h, 10 µM is 94.9%.
The result for `Cc1nn(Cc2cccnc2)c(=O)n2cccc12` [CBK283848] reads 105%; that for `Cc1cccc(N=C(S)N(CCN(C)C)Cc2cc3cc(C)cc(C)c3nc2O)c1` [CBK135105], 96.2%; that for `CCNC(=O)N1CC2(CCN(CCS(=O)(=O)c3ccccc3)CC2)c2ccccc21` [CBK126698], 90.9%.
Take `COc1ccccc1-c1ccccc1CC1(C(=O)NCc2cccc(F)c2)CCOCC1` [CBK286426]: the viability at 28.5 h, 10 µM came to 96.9%.
Take `CC1(C)CC(=O)C2=C(C1)c1c(ccc3ccccc13)NC2c1ccc(N2CCC(Cc3ccccc3)CC2)c([N+](=O)[O-])c1` (centres unmarked) [CBK262944]: the viability at 28.5 h, 10 µM worked out at 94.2%.
The value for `Cc1cc(C(=O)N2CCC(Cc3ccccc3)CC2)n[nH]1` [CBK200187] was 84.2%.
As to `Clc1cccc(-c2cncc(N3CCN(c4ccncc4)CC3)n2)c1` [CBK066099], the viability at 28.5 h, 10 µM was determined as 95.4%.
Consider `O=C(CC1CC1)NC(c1ccccc1)c1ccccn1` (centres unmarked) [CBK144108], for which the viability at 28.5 h, 10 µM came out at 103%.
The result for `O=C1Nc2cc(Cl)ccc2C(=O)N2CC[C@H](NS(=O)(=O)c3cccs3)[C@@H]12` [CBK289341] reads 108%; that for `COC(C(=O)N(C)C)C(OC)C(=O)N(C)C` (centres unmarked) [CBK005447], 111%; that for `Oc1ccc(CN2CCN(c3ccc(F)cc3)CC2)c2cccnc12` [CBK267985], 117%.
The result for `COc1cc(C(=O)Nc2ncccc2OCCCC#N)ccc1C` [CBK304568] reads 85.7%; that for `CN(C)CCNc1ncnc2sc3c(c12)CCC3` [CBK265347], 69.5%; that for `Nc1ncc(-c2ccc(C(=O)N3CCOCC3)cc2)nc1-c1ccc(Cl)s1` [CBK138510], 93.6%.
The value for `O=C(CN1CCCCC1)N1CCCC1c1nc2ccccc2[nH]1` (centres unmarked) [CBK283935] was 104%; that for `Brc1cccc(-c2cn3ccnc3c(NC3CCOCC3)n2)c1` [CBK066291] was 101%; that for `CC(C)Nc1cccnc1N1CCN(C(=O)c2cc3cc(NC(=O)N4CCOCC4)ccc3[nH]2)CC1` [CBK007872] was 96.2%.
For `O=C(O)c1cccc(NC(=S)NC(=O)c2cccnc2)c1` [CBK265739], the viability at 28.5 h, 10 µM was 94.5%.
The value for `CN1C(=O)c2ccc(NS(C)(=O)=O)cc2C1=O` [CBK038158] was 104%; that for `CCC(O)c1nc(CCSC)nn1-c1cc(=O)n(C)c2ccccc12` (centres unmarked) [CBK307711] was 90.5%.
The result for `CCC(C(=O)NCCCN1CCOCC1)c1ccccc1` (centres unmarked) [CBK265103] reads 116%; that for `O=C(c1ccccc1F)N1CCCC1c1n[nH]cc1-c1ccncc1` (centres unmarked) [CBK283428], 87.7%.
`COCCNc1nccnc1-c1cccs1` [CBK036739]: the viability at 28.5 h, 10 µM was determined as 100%.
The value for `COc1ccc(CSc2nc3sc4c(c3c(=O)n2Cc2ccccc2)CCN(Cc2ccccc2)C4)cc1` [CBK263714] was 85.1%; that for `CCOC(=O)C(CNC(=O)c1cnc(C)c(Br)c1Cl)Cc1ccccc1` (centres unmarked) [CBK305247] was 99.6%; that for `CCOC(=O)C1(C2CCCCC2)CCN(C(=O)c2ccc(OC(F)(F)F)cc2)CC1` [CBK136921] was 96.2%.
The value for `Cc1ccc(CO)cc1NC(=O)[C@@H]1CN(Cc2ccccc2)C[C@H]1C(=O)c1ccc(F)cc1` [CBK286431] was 105%; that for `O=C(Cn1ccc(=O)[nH]c1=O)NCC1(Sc2ccccc2)CC1` [CBK306242] was 110%.
The result for `Cn1nc(C(F)(F)F)c(C#N)c1Oc1ccc(C(C)(C)C)cc1` [CBK007398] reads 95.7%; that for `Cc1cc(Cn2ccc(C(F)(F)F)n2)c(C)c(-c2c(C#N)c(N)nc3c2CCCCC3)c1` [CBK267928], 104%; that for `CN1CCC(N(C)Cc2ccccc2[N+](=O)[O-])CC1` [CBK261565], 93.8%.
With `O=S(=O)(CC(CN1CCCCC1)N1CCCCC1)c1ccc2ccccc2c1` (centres unmarked) [CBK267087], the viability at 28.5 h, 10 µM was 100%.
The value for `Cc1ccc(OCC(=O)N2N=C(CC(C)C)CC2(O)C(F)(F)F)cc1C` (centres unmarked) [CBK293935] was 91.5%.
In the case of `O=C(NCc1c(Cl)cccc1Cl)N1CCCC(CO)C1` (centres unmarked) [CBK156054], the viability at 28.5 h, 10 µM is 95.7%.
The value for `Cc1ccc(C(=O)NCC2COc3ccccc3O2)c(N2CCOCC2)n1` (centres unmarked) [CBK076519] was 106%.
In the case of `Cc1c(F)cccc1CN1CCCN(S(=O)(=O)c2ccc(-c3ccccc3)cc2)CC1` [CBK062977], the viability at 28.5 h, 10 µM was determined as 95.9%.
The value for `CS(=O)(=O)N1CCCC(C(=O)NCc2ccccn2)C1` (centres unmarked) [CBK269308] was 101%; that for `O=C(Nc1cccc(C(F)(F)F)c1)c1nc[nH]n1` [CBK027341] was 89.4%; that for `CCCc1cc(C(=O)N2CCCC(COc3cccc(F)c3)C2)[nH]n1` (centres unmarked) [CBK306776] was 85.3%.
With `COCCNC(=O)c1ccc(-c2ccccc2OC)nc1NCC1CC1` [CBK106246], the viability at 28.5 h, 10 µM was 103%.
The result for `COc1ccc(OCc2nnn[nH]2)cc1` [CBK270000] reads 89.9%; that for `CO[C@@]12CC[C@H](OCC(=O)O)C[C@@H]1N(Cc1c(C)cnn1C)CC2` [CBK306638], 95.6%; that for `O=C(NCCc1ccccc1)N(Cc1ccc(-c2ccccc2)cc1)CC1CCNCC1` [CBK049792], 106%.
For the molecule `CC(=O)N1C[C@H](c2ccsc2)[C@H]2CN(Cc3cccs3)CC[C@H]21` [CBK284586], the viability at 28.5 h, 10 µM was found to be 109%.
For the molecule `O=C(NC(Cc1cccs1)c1nccs1)C1CCOC1` (centres unmarked) [CBK285054], the viability at 28.5 h, 10 µM came to 80.6%.
As for `COc1ccc(-c2oc(C(=O)N(C)C)c(C(=O)O)c2-c2ccc(OC)cc2)cc1` [CBK001958], the viability at 28.5 h, 10 µM was 90.5%.
The value for `CC1CC(C)CN(CCCNS(=O)(=O)c2ccc3c(c2)oc(=O)n3C)C1` (centres unmarked) [CBK268695] was 104%.
Regarding `O=C(O)CCCC(=O)N1CCN(C(=O)c2sc3cc(Cl)ccc3c2Cl)CC1` [CBK286973], the viability at 28.5 h, 10 µM was 91%.
Turning to `O=C1Nc2ccccc2C(O)(C(=O)NCc2ccccc2)N1c1ccccc1` (centres unmarked) [CBK288555], the viability at 28.5 h, 10 µM was determined as 91.1%.
The value for `Cc1ccc(-c2cncc(N3CCN(CCO)CC3)n2)cc1C` [CBK065912] was 102%; that for `CCc1ccccc1-c1cccc(C(=O)NCC(O)CN(C)C)c1` (centres unmarked) [CBK306604] was 92.9%.
The result for `CC(=O)Nc1cccc(NC(=S)Nc2ccc(S(N)(=O)=O)cc2)c1` [CBK267091] reads 98.4%.
Consider `COc1nccnc1OC1CCN(CCc2ccc3ccccc3c2)CC1` [CBK084264], for which the viability at 28.5 h, 10 µM was 107%.
The result for `Cn1cc(Nc2nc(-c3ccc(CCNS(C)(=O)=O)cc3)cs2)cn1` [CBK305065] reads 109%.
The result for `CC(C)/N=C1/N[C@@H]2CS(=O)(=O)C[C@H]2O1` [CBK019692G] reads 87%.
On to `O=C(O)C(Cc1c[nH]c2ccccc12)N1Cc2ccccc2C1=O` (centres unmarked) [CBK287056], for which the viability at 28.5 h, 10 µM worked out at 82%.
For the molecule `COc1ncc(-c2cncc(N[C@H](C)c3ccccc3)n2)c(OC)n1` [CBK065267], the viability at 28.5 h, 10 µM is 92.4%.
In the case of `O=C(CCc1ccc(O)c(O)c1)NNC(=S)Nc1ccccc1C(F)(F)F` [CBK267104], the viability at 28.5 h, 10 µM stood at 94.2%.
The value for `CC(C)CNC(=O)N1CCN(C2CCN(C)CC2)CC1` [CBK155902] was 95.3%.
